Reference: the supplement of paper PMC4380931

Assays:
Assay in all cases: relative viability (cell count relative to DMSO-treated control) (fraction of DMSO control); higher = more viable cells / less drug effect
[1] = test system: MMACSF
Description: (§1)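 BRAF V600E/D melanoma cell lines were seeded in 96-well plates, treated in 4 replicates with seven doses (3.16 nM to 3.16 uM) of RAF/MEK inhibitors for 24, 48 or 72 h, and stained with Hoechst 33342 (nuclei) and DEVD-NucView488 caspase-3 substrate. Plates were imaged on an Operetta. Relative viability is the cell count normalised to a DMSO-treated control; apoptosis fraction is the fraction of NucView488-positive nuclei.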

[2] = test system: RVH421
Description: as §1

[3] = test system: COLO858
Description: as §1

[4] = test system: SKMEL28
Description: as §1

[5] = test system: WM115
Description: as §1

[6] = test system: WM1552C
Description: as §1

CCCS(=O)(=O)Nc1ccc(F)c(C(=O)c2c[nH]c3ncc(Cl)cc23)c1F [PLX4720]
relative viability
Conditions	0.00316 µM	0.01 µM	0.0316 µM	0.1 µM	0.316 µM	1 µM	3.16 µM
[1], 24 h	1.02	0.9436	0.974	1.04	0.991	1.02	1.06
[1], 48 h	0.92	1.02	1.01	1.01	0.854	0.764	0.679
[1], 72 h	0.937	0.923	0.86	0.632	0.531	0.336	0.146
[2], 24 h	0.932	1.01	0.9915	1.05	1.054	0.981	0.909
[2], 48 h	1.03	0.881	0.948	0.939	0.732	0.673	0.541
[2], 72 h	0.978	1.03	1.01	0.89	0.678	0.569	0.483
[3], 24 h	1.03	1.15	1.21	1.17	1.02	0.946	0.808
[3], 48 h	0.968	1.07	1.06	0.893	0.538	0.407	0.306
[3], 72 h	1.13	1.2	1.19	0.893	0.569	0.417	0.273
[4], 48 h	0.824	1.43	1.48	1.42	1.12	0.941	0.61
[4], 72 h	0.973	0.881	0.968	0.866	0.598	0.458	0.389
[5], 24 h	1.14	1.39	1.49	1.44	1.58	1.02	1.14
[5], 48 h	1.25	1.37	1.32	1.83	1.67	1.24	0.792
[5], 72 h	1.01	1.03	1.03	1.06	0.8596	0.594	0.302
[6], 24 h	1.02	1.05	1.031	1.08	1.02	1.064	0.9942
[6], 48 h	0.976	0.994	1.01	0.977	0.839	0.795	0.723
[6], 72 h	1.04	1.13	1.13	1.03	0.83	0.576	0.497
